Results as given in ChEMBL document CHEMBL4808251, “Preparation, biological & cheminformatics-based assessment of N2,N4-diphenylpyrimidine-2,4-diamine as potential Kinase-targeted antimalarials” (Bioorg Med Chem, 2021).
Values after ≈ are worked out from the molar mass of the structure shown.

How the values were obtained:
[1] = tested on: Plasmodium falciparum; assay: Antimalarial activity against chloroquine-sensitive plasmodium falciparum 3D7 infected in human erythrocytes assessed as parasite growth inhibition measured after 72 hrs by SYBR green dye based fluorescence analysis; type: functional, organism-based; conditions: 3D7, Erythrocyte
[2] = tested on: HepG2; assay: Cytotoxicity against human HepG2 cells assessed as inhibition of cell growth measured after 72 hrs by resazurin dye based fluorescence assay; conditions: HepG2, 72 h
[3] = Selectivity index, ratio of IC50 for cytotoxicity against human HepG2 cells to IC50 for antimalarial activity against chloroquine-sensitive plasmodium falciparum 3D7 infected in human erythrocytes; type: toxicity, cell-based; conditions: read-out: Ratio IC50
[4] = target: JNK1 (Mitogen-activated protein kinase 8) (Homo sapiens, UniProt P45983); assay: Inhibition of human JNK1 at 1 uM measured after 30 mins by [gamma-33P]-ATP assay
Chain of JNK1 (Mitogen-activated protein kinase 8) (P45983 whole entry): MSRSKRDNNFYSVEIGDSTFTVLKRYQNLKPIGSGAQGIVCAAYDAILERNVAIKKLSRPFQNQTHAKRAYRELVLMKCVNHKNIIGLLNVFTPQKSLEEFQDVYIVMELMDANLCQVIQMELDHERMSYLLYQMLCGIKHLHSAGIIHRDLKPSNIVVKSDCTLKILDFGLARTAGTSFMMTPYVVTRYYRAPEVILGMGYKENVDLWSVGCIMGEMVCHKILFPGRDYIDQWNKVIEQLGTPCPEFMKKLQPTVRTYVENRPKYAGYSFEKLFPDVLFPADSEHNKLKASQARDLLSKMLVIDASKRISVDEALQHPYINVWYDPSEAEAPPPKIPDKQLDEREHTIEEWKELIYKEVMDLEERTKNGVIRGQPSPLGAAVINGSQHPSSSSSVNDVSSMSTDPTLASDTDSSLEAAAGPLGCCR

[5] = target: ERK1 (Mitogen-activated protein kinase 3) (Homo sapiens, UniProt P27361); assay: Inhibition of human ERK1 at 1 uM measured after 30 mins by [gamma-33P]-ATP assay
[6] = target: MEKK1 (Mitogen-activated protein kinase kinase kinase 1) (Homo sapiens, UniProt Q13233); assay: Inhibition of human MEKK1 at 1 uM measured after 30 mins by [gamma-33P]-ATP assay
Chain of MEKK1 (Mitogen-activated protein kinase kinase kinase 1) (Q13233 whole entry): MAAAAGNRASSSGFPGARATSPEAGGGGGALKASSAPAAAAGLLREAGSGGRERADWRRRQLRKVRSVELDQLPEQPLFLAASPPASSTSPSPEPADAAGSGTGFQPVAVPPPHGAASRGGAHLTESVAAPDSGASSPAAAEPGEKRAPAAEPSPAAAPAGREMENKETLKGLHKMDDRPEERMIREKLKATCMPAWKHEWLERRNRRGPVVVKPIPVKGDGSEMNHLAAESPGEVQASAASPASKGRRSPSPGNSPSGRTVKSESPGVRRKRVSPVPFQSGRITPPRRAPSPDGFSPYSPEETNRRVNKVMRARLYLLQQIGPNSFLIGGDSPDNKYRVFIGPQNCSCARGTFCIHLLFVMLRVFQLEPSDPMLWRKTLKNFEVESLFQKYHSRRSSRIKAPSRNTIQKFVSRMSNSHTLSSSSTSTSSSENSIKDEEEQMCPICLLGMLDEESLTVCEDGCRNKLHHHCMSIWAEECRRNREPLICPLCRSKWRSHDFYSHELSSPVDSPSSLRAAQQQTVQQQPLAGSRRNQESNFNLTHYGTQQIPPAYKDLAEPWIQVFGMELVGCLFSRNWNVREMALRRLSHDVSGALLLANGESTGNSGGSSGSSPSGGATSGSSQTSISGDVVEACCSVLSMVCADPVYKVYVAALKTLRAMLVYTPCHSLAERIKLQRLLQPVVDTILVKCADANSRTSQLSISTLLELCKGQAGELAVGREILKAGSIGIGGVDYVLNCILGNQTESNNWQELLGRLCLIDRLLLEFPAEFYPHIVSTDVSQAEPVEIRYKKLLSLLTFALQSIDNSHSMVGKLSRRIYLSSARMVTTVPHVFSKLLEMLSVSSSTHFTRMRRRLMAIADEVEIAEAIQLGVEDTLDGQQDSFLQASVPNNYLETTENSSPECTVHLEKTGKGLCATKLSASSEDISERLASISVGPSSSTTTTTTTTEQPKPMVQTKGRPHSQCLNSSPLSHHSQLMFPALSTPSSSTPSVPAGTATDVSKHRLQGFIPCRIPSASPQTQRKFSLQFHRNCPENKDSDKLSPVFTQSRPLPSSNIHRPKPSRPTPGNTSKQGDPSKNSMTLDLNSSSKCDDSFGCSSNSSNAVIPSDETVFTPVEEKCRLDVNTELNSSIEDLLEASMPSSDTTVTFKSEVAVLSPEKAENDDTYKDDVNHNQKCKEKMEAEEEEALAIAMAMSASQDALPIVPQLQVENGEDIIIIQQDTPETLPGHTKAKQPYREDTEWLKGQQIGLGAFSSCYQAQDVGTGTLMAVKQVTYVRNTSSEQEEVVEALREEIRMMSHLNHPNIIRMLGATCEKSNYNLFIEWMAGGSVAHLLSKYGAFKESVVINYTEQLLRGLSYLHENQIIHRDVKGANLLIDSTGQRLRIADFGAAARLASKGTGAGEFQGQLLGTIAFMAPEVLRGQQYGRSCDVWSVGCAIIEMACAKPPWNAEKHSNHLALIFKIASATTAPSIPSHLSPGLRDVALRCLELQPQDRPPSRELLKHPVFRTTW

[7] = target: HER4 (Receptor tyrosine-protein kinase erbB-4) (Homo sapiens, UniProt Q15303); assay: Inhibition of human HER4 at 1 uM measured after 30 mins by [gamma-33P]-ATP assay
Chain of HER4 (Receptor tyrosine-protein kinase erbB-4) (Q15303 whole entry): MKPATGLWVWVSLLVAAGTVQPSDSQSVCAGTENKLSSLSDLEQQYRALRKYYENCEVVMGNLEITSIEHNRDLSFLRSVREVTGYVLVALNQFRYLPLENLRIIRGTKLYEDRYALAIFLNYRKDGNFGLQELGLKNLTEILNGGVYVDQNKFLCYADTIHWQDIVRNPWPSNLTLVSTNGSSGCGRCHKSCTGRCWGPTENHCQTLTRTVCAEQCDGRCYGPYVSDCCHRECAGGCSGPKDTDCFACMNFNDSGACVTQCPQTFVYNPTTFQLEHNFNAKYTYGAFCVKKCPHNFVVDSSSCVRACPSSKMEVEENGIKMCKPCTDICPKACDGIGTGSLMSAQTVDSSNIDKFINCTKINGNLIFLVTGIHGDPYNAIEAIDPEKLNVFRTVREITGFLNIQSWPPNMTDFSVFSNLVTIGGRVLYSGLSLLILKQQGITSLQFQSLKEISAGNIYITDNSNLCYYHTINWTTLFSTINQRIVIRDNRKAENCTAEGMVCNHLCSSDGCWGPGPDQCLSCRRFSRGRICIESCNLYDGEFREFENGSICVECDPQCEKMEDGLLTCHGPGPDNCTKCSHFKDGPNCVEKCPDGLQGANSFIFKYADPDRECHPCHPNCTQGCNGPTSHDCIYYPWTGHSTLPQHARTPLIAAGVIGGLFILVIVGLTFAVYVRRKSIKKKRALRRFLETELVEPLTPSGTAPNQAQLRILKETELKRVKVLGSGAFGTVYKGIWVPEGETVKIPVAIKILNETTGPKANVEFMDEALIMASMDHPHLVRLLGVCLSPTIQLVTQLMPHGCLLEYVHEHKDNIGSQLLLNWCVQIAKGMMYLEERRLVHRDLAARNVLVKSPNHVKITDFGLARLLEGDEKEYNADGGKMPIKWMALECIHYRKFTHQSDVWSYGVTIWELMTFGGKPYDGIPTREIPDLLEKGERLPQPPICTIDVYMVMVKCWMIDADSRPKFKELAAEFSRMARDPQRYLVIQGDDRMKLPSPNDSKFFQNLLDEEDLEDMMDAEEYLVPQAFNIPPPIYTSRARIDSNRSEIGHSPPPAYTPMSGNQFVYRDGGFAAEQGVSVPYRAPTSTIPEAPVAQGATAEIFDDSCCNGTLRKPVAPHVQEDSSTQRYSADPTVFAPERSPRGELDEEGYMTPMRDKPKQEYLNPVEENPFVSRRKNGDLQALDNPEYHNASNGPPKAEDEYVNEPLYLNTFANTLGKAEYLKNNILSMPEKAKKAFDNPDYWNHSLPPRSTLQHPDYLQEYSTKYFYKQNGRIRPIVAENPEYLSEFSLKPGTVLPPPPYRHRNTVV

[8] = 1-octanol/water partition coefficient, logD of the compound at pH 7.4 measured after 6 hrs by shake flask technique based HPLC-UV analysis; type: physicochemical
[9] = Aqueous solubility of compound in PBS at pH 7.4 by HPLC-UV analysis; type: physicochemical
[10] = Effective permeability of the compound in PBS at pH 7.4 at 10 uM incubated for 5 hrs by PAMPA based UPLC-MS/MS analysis; type: ADME; conditions: read-out: permeability
[11] = Intrinsic clearance in human liver microsomes at 0.5 uM in the presence of NADPH measured upto 30 mins by UPLC-MS/MS analysis; type: ADME, Microsome; conditions: 0.5 h
[12] = target: T1, Aurora kinase A (Homo sapiens, UniProt O14965); assay: Inhibition of human Aurora A at 1 uM measured after 30 mins by [gamma-33P]-ATP assay
T1 sequence (O14965 whole entry): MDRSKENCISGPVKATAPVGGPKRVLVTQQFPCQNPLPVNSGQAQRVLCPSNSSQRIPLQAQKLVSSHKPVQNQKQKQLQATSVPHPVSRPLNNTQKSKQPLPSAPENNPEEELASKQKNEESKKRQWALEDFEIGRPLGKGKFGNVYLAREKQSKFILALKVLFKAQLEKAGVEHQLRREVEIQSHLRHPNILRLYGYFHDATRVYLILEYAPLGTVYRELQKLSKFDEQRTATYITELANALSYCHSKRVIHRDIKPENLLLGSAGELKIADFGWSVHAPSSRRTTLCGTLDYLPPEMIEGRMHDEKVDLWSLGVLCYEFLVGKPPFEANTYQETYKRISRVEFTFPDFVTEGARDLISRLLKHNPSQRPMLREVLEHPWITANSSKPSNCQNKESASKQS

[13] = target: VEGFR1 (Vascular endothelial growth factor receptor 1) (Homo sapiens, UniProt P17948); assay: Inhibition of human VEGFR1 at 1 uM measured after 30 mins by [gamma-33P]-ATP assay; conditions: human VEGFR1 kinase
Chain of VEGFR1 (Vascular endothelial growth factor receptor 1) (P17948 whole entry): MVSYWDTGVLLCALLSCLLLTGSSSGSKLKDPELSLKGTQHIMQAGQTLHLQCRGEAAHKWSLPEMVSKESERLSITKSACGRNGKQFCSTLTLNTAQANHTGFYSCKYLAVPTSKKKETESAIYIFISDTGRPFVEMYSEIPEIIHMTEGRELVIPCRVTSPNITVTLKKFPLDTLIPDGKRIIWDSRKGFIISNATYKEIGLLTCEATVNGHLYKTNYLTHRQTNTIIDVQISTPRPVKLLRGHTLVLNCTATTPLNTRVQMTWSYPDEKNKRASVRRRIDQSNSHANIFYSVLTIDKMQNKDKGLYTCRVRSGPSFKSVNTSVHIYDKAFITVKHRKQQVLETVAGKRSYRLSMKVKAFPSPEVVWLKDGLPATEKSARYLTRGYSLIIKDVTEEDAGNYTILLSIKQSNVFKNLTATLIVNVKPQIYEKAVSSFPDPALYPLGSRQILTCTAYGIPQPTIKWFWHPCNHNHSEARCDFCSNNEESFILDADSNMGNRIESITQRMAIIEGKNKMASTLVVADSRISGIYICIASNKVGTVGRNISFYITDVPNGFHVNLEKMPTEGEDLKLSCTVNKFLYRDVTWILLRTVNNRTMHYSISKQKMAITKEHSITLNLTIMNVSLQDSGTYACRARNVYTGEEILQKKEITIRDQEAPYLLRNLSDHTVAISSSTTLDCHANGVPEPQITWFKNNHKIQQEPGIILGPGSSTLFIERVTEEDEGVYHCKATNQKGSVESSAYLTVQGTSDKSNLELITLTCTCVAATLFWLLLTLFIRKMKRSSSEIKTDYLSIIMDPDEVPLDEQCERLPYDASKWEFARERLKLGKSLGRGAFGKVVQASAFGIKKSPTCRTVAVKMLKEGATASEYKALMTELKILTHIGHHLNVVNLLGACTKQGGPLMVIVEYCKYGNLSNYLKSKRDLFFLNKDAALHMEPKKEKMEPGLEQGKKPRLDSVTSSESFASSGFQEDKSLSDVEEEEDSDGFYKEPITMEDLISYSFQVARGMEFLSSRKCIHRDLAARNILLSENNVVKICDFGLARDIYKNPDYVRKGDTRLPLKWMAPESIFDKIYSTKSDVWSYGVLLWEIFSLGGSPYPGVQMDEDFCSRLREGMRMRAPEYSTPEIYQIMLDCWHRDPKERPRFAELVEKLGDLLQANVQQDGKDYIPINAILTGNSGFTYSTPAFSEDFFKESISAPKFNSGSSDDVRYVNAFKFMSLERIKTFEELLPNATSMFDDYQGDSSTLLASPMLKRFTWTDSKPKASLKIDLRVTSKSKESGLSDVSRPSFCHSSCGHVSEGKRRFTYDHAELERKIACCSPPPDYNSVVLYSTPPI

[14] = target: T2, JAK3 (Tyrosine-protein kinase JAK3) (Homo sapiens, UniProt P52333); assay: Inhibition of human JAK3 at 1 uM measured after 30 mins by [gamma-33P]-ATP assay
T2 sequence (P52333 whole entry): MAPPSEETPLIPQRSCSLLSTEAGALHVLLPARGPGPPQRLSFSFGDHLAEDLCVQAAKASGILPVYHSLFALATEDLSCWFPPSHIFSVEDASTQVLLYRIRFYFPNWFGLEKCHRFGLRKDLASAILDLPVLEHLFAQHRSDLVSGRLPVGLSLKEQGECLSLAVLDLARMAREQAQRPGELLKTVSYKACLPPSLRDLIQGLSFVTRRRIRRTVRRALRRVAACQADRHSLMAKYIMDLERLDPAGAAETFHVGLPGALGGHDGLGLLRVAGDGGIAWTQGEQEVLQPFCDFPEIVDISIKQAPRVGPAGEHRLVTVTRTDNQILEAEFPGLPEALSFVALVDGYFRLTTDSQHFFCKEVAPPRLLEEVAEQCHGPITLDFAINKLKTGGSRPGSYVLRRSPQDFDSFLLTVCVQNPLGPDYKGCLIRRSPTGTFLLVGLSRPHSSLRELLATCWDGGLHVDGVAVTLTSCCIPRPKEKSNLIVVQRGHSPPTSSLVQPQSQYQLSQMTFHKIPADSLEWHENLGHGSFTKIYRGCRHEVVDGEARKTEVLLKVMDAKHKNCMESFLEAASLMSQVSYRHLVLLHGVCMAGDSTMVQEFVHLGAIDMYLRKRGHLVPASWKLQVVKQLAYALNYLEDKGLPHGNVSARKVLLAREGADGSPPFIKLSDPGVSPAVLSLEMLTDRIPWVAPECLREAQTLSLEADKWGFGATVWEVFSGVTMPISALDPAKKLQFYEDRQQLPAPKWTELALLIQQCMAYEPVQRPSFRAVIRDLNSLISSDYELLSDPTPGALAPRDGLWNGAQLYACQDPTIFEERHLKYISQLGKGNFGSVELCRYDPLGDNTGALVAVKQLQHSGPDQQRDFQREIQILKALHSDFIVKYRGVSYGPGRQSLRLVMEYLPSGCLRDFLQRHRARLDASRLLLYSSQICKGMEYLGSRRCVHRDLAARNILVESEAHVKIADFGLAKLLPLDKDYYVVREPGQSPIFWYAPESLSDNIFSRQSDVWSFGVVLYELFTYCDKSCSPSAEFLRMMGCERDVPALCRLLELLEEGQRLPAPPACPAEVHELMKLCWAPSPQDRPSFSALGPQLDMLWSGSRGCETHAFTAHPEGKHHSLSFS

[15] = target: CDK2 (Cyclin-dependent kinase 2) (Homo sapiens, UniProt P24941); assay: Inhibition of human CDK2 at 1 uM measured after 30 mins by [gamma-33P]-ATP assay
[16] = target: PIM1 (Serine/threonine-protein kinase pim-1) (Homo sapiens, UniProt P11309); assay: Inhibition of human PIM1 at 1 uM measured after 30 mins by [gamma-33P]-ATP assay
Chain of PIM1 (Serine/threonine-protein kinase pim-1) (P11309 whole entry): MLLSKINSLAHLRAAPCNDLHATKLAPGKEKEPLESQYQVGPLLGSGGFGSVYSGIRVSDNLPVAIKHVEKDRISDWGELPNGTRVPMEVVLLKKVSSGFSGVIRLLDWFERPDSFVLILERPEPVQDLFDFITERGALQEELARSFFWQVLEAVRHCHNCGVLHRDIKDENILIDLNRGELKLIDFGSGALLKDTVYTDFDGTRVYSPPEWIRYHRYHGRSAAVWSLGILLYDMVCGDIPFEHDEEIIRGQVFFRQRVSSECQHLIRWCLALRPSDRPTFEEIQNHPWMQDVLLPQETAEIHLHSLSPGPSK

SMILES: Cc1c2ccc(Nc3ccnc(Nc4ccc(S(N)(=O)=O)cc4)n3)cc2nn1C
- IC50 [1]: 13 µM
- IC50 [2]: > 25 µM
- selectivity ratio [3]: > 1.9

SMILES: Cc1cnc(Nc2ccc(S(N)(=O)=O)cc2)nc1Nc1ccc2nc[nH]c2c1
- IC50 [1]: 3.2 µM
- IC50 [2]: 18 µM
- selectivity ratio [3]: 5.6

SMILES: c1cc(Nc2nccc(Nc3ccc4cn[nH]c4c3)n2)cc(N2CCOCC2)c1
- IC50 [1]: 4.2 µM
- IC50 [2]: 16 µM
- selectivity ratio [3]: 3.8

SMILES: NS(=O)(=O)c1cccc(Nc2nccc(Nc3ccc4nc[nH]c4c3)n2)c1
- IC50 [1]: 4.2 µM
- IC50 [2]: > 25 µM
- selectivity ratio [3]: > 6

SMILES: Cc1ccc(Nc2nccc(Nc3ccc4cn[nH]c4c3)n2)cc1
- IC50 [1]: 2.5 µM
- IC50 [2]: 18 µM
- selectivity ratio [3]: 7.2

SMILES: Cc1c2ccc(Nc3ccnc(Nc4cccc(S(N)(=O)=O)c4)n3)cc2nn1C
- IC50 [1]: 10 µM
- IC50 [2]: 19 µM
- selectivity ratio [3]: 1.9

SMILES: CN1CCN(c2cccc(Nc3nccc(Nc4ccc5nc[nH]c5c4)n3)c2)CC1
- IC50 [1]: 0.87 µM
- IC50 [2]: 11 µM
- selectivity ratio [3]: 13

SMILES: CN1CCN(c2cccc(Nc3nccc(Nc4ccc5cn[nH]c5c4)n3)c2)CC1
- IC50 [1]: 1.1 µM
- IC50 [2]: 6.7 µM
- selectivity ratio [3]: 6.1

SMILES: c1cc(Nc2nccc(Nc3ccc4nc[nH]c4c3)n2)cc(N2CCOCC2)c1
- IC50 [1]: 2.4 µM
- IC50 [2]: 9.6 µM
- selectivity ratio [3]: 4

SMILES: Cc1cccc(Nc2ncc(C)c(Nc3ccc4nc[nH]c4c3)n2)c1
- IC50 [1]: 0.77 µM
- IC50 [2]: 6.6 µM
- selectivity ratio [3]: 8.6

SMILES: c1cc(Nc2ccc3nc[nH]c3c2)nc(Nc2ccc(N3CCOCC3)cc2)n1
- IC50 [1]: 3.2 µM
- IC50 [2]: > 25 µM
- selectivity ratio [3]: > 7.8

SMILES: CS(=O)(=O)Nc1cccc(Nc2nccc(Nc3ccc4nc[nH]c4c3)n2)c1
- IC50 [1]: 2.8 µM
- IC50 [2]: > 25 µM
- selectivity ratio [3]: > 8.9

SMILES: c1cc(Nc2ccc3cn[nH]c3c2)nc(Nc2ccc(N3CCOCC3)cc2)n1
- IC50 [1]: 2.2 µM
- IC50 [2]: 8 µM
- selectivity ratio [3]: 3.6

SMILES: Cc1cccc(Nc2ncc(Cl)c(Nc3ccc4nc[nH]c4c3)n2)c1
- IC50 [1]: 2 µM
- IC50 [2]: 7.4 µM
- selectivity ratio [3]: 3.7

SMILES: NC(=O)c1ccc(Nc2nccc(Nc3ccc4cn[nH]c4c3)n2)cc1
- IC50 [1]: 5.4 µM
- IC50 [2]: 16 µM
- selectivity ratio [3]: 3

SMILES: CN1CCN(c2ccc(Nc3nccc(Nc4ccc5nc[nH]c5c4)n3)cc2)CC1
- inhibition at 0.5 h, 1 µM [4]: 75.9%
- inhibition at 0.5 h, 1 µM [5]: 91.3%
- inhibition at 0.5 h, 1 µM [6]: 47.9%
- inhibition at 0.5 h, 1 µM [7]: 41.6%
- IC50 [1]: 0.66 µM
- IC50 [2]: > 25 µM
- selectivity ratio [3]: > 38
- logD at 6 h [8]: 2.3
- solubility [9]: 124 µM (≈ 49.7 µg/mL)
- Papp at 5 h, 10 µM [10]: 0.02 ×10⁻⁶ cm/s
- CLH [11]: 0.8 mL/min/g
- inhibition at 0.5 h, 1 µM [12]: 20.6%
- inhibition at 0.5 h, 1 µM [13]: 7.9%
- inhibition at 0.5 h, 1 µM [14]: 69.2%
- inhibition at 0.5 h, 1 µM [15]: 85%
- inhibition at 0.5 h, 1 µM [16]: 89.3%

SMILES: NS(=O)(=O)c1ccc(Nc2nccc(Nc3ccc4nc[nH]c4c3)n2)cc1
- IC50 [1]: 8.2 µM
- IC50 [2]: > 25 µM
- selectivity ratio [3]: > 3

SMILES: Cc1cccc(Nc2nccc(Nc3ccc4cn[nH]c4c3)n2)c1
- IC50 [1]: 3.6 µM
- IC50 [2]: 15 µM
- selectivity ratio [3]: 4.2

SMILES: CN1CCN(c2ccc(Nc3nccc(Nc4ccc5cn[nH]c5c4)n3)cc2)CC1
- IC50 [1]: 0.6 µM
- IC50 [2]: 7 µM
- selectivity ratio [3]: 12

SMILES: Cc1cccc(Nc2nccc(Nc3ccc4nc[nH]c4c3)n2)c1
- IC50 [1]: 0.98 µM
- IC50 [2]: 20 µM
- selectivity ratio [3]: 20

SMILES: NS(=O)(=O)c1ccc(Nc2ncc(Cl)c(Nc3ccc4nc[nH]c4c3)n2)cc1
- IC50 [1]: 2.5 µM
- IC50 [2]: 7.8 µM
- selectivity ratio [3]: 3.1

SMILES: O=C(O)c1ccc(Nc2nccc(Nc3ccc4nc[nH]c4c3)n2)cc1
- IC50 [1]: 8.2 µM
- IC50 [2]: > 25 µM
- selectivity ratio [3]: > 3

SMILES: Brc1ccc(Nc2nccc(Nc3ccc4cn[nH]c4c3)n2)cc1
- IC50 [1]: 1.6 µM
- IC50 [2]: 20 µM
- selectivity ratio [3]: 13

SMILES: Brc1cccc(Nc2nccc(Nc3ccc4cn[nH]c4c3)n2)c1
- IC50 [1]: 2.6 µM
- IC50 [2]: 17 µM
- selectivity ratio [3]: 6.5

SMILES: NS(=O)(=O)c1ccc(Nc2nccc(Nc3ccc4cn[nH]c4c3)n2)cc1
- IC50 [1]: 19 µM
- IC50 [2]: 22 µM
- selectivity ratio [3]: 1.2

SMILES: Cc1ccc(Nc2nccc(Nc3ccc4nc[nH]c4c3)n2)cc1
- IC50 [1]: 1.4 µM
- IC50 [2]: > 25 µM
- selectivity ratio [3]: > 18

SMILES: O[C@@H](c1cc(C(F)(F)F)nc2c(C(F)(F)F)cccc12)[C@H]1CCCCN1 [(S,R)-MEFLOQUINE]
- IC50 [1]: 0.014 µM

SMILES: C[C@H]1[C@@H](O)O[C@@H]2O[C@@]3(C)CC[C@H]4[C@H](C)CC[C@@H]1[C@@]24OO3 [ARTENIMOL]
- IC50 [1]: 0.031 µM

SMILES: CCc1nc(N)nc(N)c1-c1ccc(Cl)cc1 [PYRIMETHAMINE]
- IC50 [1]: 0.004 µM
